The values below come from patent US9957253B2, “Triaminopyrimidine compounds useful for preventing or treating malaria” (MMV MEDICINES FOR MALARIA VENTURE, priority 2014, dated 2018).

Data set [1] is described as follows: Prediction of human PK parameters (well stirred model). To be noted: from human hepatocyte Clint and fu. The source says:
Prediction of Human Pharmacokinetic (PK) Parameters Well stirred model was used for predicting human CL using human hepatocyte Clint and free fraction (fu) in human plasma. Liver blood flow rates, liver weights, hepatocellularity and in vitro in vivo correlation/extrapolation (IVIVC/E) templates routinely employed (Smith et al., Pharmacokinetics and Metabolism in Drug Design, Methods and Principles in Medicinal Chemistry Volume 13, 2004, Wiley-VCH, Weinheim, Germany) were used for prediction.

In a further data set the target is T1, human CYP 2D6 (Homo sapiens, UniProt P10635).
T1 construct: Mixture of 180 μL of 20 mg/mL HLM and 90 μL of substrate cocktail solution; from tissue; host or cells: human liver microsomes (HLM)
Kind of data set: Time dependent CYP inhibition assay, CYP 2D6. It is filed as in vitro ADME.

Data set [2] can be described thus: Plasma protein binding assay (equilibrium dialysis), human. The class given is in vitro ADME. As for the experimental part: (§1) Plasma Protein Binding Assay
(§2) Protein binding is measured using the equilibrium dialysis technique. Compound is added to 10% plasma giving a concentration of 20 μM and dialysed with isotonic buffer for 18 hours at 37° C. The plasma and buffer solutions are analysed using generic LCUVMS and the first apparent binding constant for the compound derived. The binding constant is then used to determine the % free in 100% plasma.

For a further data set, the target named is T2, human CYP 2C19 (Homo sapiens, UniProt P33261).
T2 construct: Mixture of 180 μL of 20 mg/mL HLM and 90 μL of substrate cocktail solution; from tissue; host or cells: human liver microsomes (HLM)
Briefly: CYP inhibition assay, CYP 2C19. It is filed as in vitro ADME. As for the experimental part: This study was conducted using specific substrates for 5 major human CYP isozymes. These substrates were used as a cocktail (phenacetin, diclofenac, S-mephenytoin, bufuralol and midazolam which are predominantly metabolised by CYP 1A2, 2C9, 2C19, 2D6 and 3A4/5, respectively) at concentrations equivalent to their respective Km values. LC-MS-MS (MRM mode) was used to follow the formation of the CYP specific metabolites. A decrease in the formation of the metabolites in peak area to vehicle control was used to calculate the IC50 value. […] Test compound was used at 6 different concentrations ([…]) to estimate IC50.
The incubation was carried out in 96 deep well plates. Mixture of 180 μL of 20 mg/mL HLM and 90 μL of substrate cocktail solution was added to 15840 μL of phosphate buffer and 179 μL of this mixture was mixed with 1 μL of the test compound, inhibitor cocktail solution or vehicle in each well. The final concentration of DMSO:ACN in the assay mix was 0.3:0.7% v/v. The incubation plate was placed into the water bath and pre-warmed at 37° C. for 5 min before the reactions were started by the addition of 20 μL of 10 mmol/L NADPH solution in phosphate buffer. After the addition of NADPH, the incubation plate was incubated at 37° C. for a further 5 min. The reaction was quenched by the addition of 1 volume (200 μL) of cold ACN containing 3% formic acid and 40 nmol/L verapamil. The plates were kept on ice for 20 min and then centrifuged at 4000 rpm for 30 min to precipitate protein. The supernatant 180 μL was transferred to the analysis plate for LC/MS/MS analysis.

The subject of data set [3] is hepatocytes. Kind of data set: Metabolic stability assay (hepatocyte Clint), human. To be noted: 1 μM compound. It is filed as in vitro ADME. As for the experimental part:
Metabolic Stability Assay (Rat/Human Hepatocyte Clint)
Viability of cryopreserved hepatocytes was determined using trypan blue and the cell concentration was adjusted to 10^6 cells per mL with Leibovitz L-15 Buffer. 1 μM compound (in Acetonitrile; 0.01% DMSO) was incubated with 500 μL of hepatocytes (1 million cells per mL) in a NUNC plate. Reaction was stopped at different time points (0, 5, 15, 30, 60, 90 and 120 min) by addition of 3 volumes of chilled acetonitrile to 100 μL of reaction mixture and centrifuged at 4° C. for 15 min. Supernatants were analyzed using LC-MS/MS for substrate depletion.

Data set [4] can be described thus: Plasma protein binding assay (equilibrium dialysis), dog. It is filed as in vitro ADME. As for the experimental part: as §1, §2
In general terms: Equilibrium dialysis compares concentrations on both sides of a semipermeable membrane.

Data set [5] in a line: Prediction of hepatic blood clearance (well stirred model), dog.
In data set [6] the test system is hepatocytes. Briefly: Metabolic stability assay (hepatocyte Clint), dog. It is filed as in vitro ADME. The note with it: 1 μM compound.
Data set [7] in a line: Blood:Plasma (BP) ratio, dog. It is filed as in vitro ADME. The note with it: 10 μM, 37° C., 30 min. As for the experimental part:
Determination of Blood:Plasma (BP) Ratio
The incubation plate and the dog blood/plasma was preheated at 37° C. for 10 minutes. 2 μL of working solution of each compound was added to 398 μL of dog reference plasma or blood to achieve a final concentration of 10 μM. Plates were incubated at 37° C. with shaking for 30 min. After incubation, the blood samples are spun for 10 min. at 4,000 rpm (37° C.) and the plasma samples were stored at 37° C. Aliquots (100 μL) of plasma separated from centrifuged whole blood samples and reference plasma samples were transferred into 96-well plates. 400 μL of cold acetonitrile was added to precipitate protein and release compound. After vortexing for 10 min., plates were centrifuged for 30 min. at 4,000 rpm. 250 μL of the supernatant was transferred to new 96-well plates and centrifuged again at 4,000 rpm for 30 min. 100 μL of the supernatant was used for analysis by LC-MS/MS.

Data set [8] is described as follows: Pharmacokinetics in the blood of infected Pf/SCID mice. The class given is in vivo. The note with it: 40 mg/kg. As for the experimental part: Pharmacokinetics in the Blood of Infected Pf/SCID Mice:
Peripheral blood samples (25 μl) were taken at different times (0.25, 0.5, 1, 2, 4, 6, 8 and 23 hours), mixed with 25 µl of H2O mili Q and immediately frozen on dry ice. The frozen samples were stored at −80° C. until analysis. Vehicle-treated mice experienced the same blood-sampling regimen. Blood samples were processed by liquid-liquid extraction by mixing 10 μl diluted blood with 180 μl AcN:MeOH (80:20; v:v) mixture. Quantitative analysis by LC/MSMS was performed using UPLC (Waters) and Sciex API4000. The lower limit of quantification (LLOQ) in this assay was 0.005 μg/ml.

The mark [9] stands for this setting: human liver microsomes, substrate cocktail, read-out: IC50 CYP 2C19.

Structures can show the parent of a compound that is named as a salt. Where two headings read alike, the source gives them in different places. Where only a bound is given, the exact number is not on record here.

T1 sequence (P10635 whole entry): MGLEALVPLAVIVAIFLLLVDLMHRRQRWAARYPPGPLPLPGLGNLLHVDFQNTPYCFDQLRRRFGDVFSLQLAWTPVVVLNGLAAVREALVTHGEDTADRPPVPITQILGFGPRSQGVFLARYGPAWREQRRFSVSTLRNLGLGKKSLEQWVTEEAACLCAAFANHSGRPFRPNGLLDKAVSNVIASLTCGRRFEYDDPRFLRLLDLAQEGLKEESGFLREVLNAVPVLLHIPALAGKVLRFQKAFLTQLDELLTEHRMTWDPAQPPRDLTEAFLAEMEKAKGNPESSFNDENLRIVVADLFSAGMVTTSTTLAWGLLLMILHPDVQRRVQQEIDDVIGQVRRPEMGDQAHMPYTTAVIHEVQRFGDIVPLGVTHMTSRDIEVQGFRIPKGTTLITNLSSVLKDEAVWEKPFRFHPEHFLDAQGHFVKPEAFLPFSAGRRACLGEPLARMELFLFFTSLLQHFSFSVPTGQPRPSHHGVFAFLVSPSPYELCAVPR
T2 sequence (P33261 whole entry): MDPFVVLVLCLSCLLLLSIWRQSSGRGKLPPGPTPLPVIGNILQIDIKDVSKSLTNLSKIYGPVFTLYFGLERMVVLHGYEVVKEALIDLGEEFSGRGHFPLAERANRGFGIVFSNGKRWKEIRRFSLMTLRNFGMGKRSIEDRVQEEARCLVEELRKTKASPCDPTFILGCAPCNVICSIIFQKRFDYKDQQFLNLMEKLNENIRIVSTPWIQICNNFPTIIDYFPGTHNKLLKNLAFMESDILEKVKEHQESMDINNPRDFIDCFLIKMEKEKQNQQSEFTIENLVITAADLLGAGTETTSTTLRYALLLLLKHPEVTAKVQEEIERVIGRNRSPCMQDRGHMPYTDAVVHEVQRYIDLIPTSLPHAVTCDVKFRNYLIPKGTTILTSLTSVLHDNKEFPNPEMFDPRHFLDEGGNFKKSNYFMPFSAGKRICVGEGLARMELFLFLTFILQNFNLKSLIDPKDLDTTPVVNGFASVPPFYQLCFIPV

What is called IC50 is the point on the concentration scale where inhibition reaches its midpoint. With `CCc1cc(Nc2ncc(N3CCN[C@H](C)C3)c(Nc3cc(C)n(C)n3)n2)nc(C)c1F` [Example 7, (R)—N4-(1,5-dimethyl-1H-pyrazol-3-yl)-N2-(4-ethyl-5-fluoro-6-methylpyridin-2-yl)-5-(3-methylpiperazin-1-yl)pyrimidine-2,4-diamine dihydrochloride], in data set [1], the “Predicted CLh blood” value was 0.198 L/h/kg. Besides, the figures for the IC50 against human CYP 2D6 and against human CYP 2C19 were more than 56 µM and more than 30 µM, respectively. Also, in data set [2], the Fup was 0.03. Moreover, the “Hep. Clint” value in the data set with hepatocytes [3] was determined as 2.7 μl/min/1E6.

In the case of `Cc1nc(Nc2ncc(N3CCN[C@H](C)C3)c(Nc3cnn(C)n3)n2)cc(C2CC2)c1Cl` [Example 10, (R)—N2-(5-chloro-4-cyclopropyl-6-methylpyridin-2-yl)-N4-(2-methyl-2H-1,2,3-triazol-4-yl)-5-(3-methylpiperazin-1-yl)pyrimidine-2,4-diamine dihydochloride], the Fup in [4] and in data set [2] was 0.04 throughout. Besides, the “Predicted CLh blood” value is 0.186 L/h/kg in [1] and 0.762 L/h/kg in [5]. Besides, the figures for the IC50 at human CYP 2D6 and on human CYP 2C19 (setting [9]) were more than 56 µM and more than 30 µM, respectively. Besides, the “Hep. Clint” value was determined as 5.1 μl/min/1E6 with hepatocytes [6] and 1.8 μl/min/1E6 in the data set on hepatocytes [3]. The BP ratio in data set [7] was determined as 1.7.

`Cc1nc(Nc2ncc(N3CCN(C)[C@H](C)C3)c(Nc3cc(C)n(C)n3)n2)cc(C2CC2)c1F` [Example 13, (R)—N2-(4-cyclopropyl-5-fluoro-6-methylpyridin-2-yl)-N4-(1,5-dimethyl-1H-pyrazol-3-yl)-5-(3,4-dimethylpiperazin-1-yl)pyrimidine-2,4-diamine]: the Fup in data set [4] came to 0.04; in data set [2], 0.03. The “Predicted CLh blood” value is 0.288 L/h/kg in data set [1] and 1.248 L/h/kg in [5]. In addition, the results for the 50% inhibitory concentration (IC50) against human CYP 2D6 and at human CYP 2C19 (setting [9]) were more than 56 µM and more than 30 µM, respectively. Also, the figures for the “Hep. Clint” value in the data set on hepatocytes [6] and in the data set with hepatocytes [3] were 9.3 μl/min/1E6 and 3.1 μl/min/1E6, respectively. Further, the BP ratio in data set [7] is reported as 1.35. For the same molecule, in [8], the “Blood Cmin (minimum parasiticidal concentration, MPC)” value was found to be 0.04 µM.
